In patent US20230302131A1, “MPC INHIBITION FOR PRODUCING T-CELLS WITH A MEMORY PHENOTYPE” (UNIVERSITÉ DE LAUSANNE, priority 2020, published 2023):

Legend:
[1] = tested on: B16 melanoma tumors expressing HER2; assay: HER2-CAR T cell production with UK5099 and adoptive transfer into mice with B16 tumors expressing HER2; format: in vivo, mouse
Method: For each retroviral preparation, 8×10^6 Phoenix ECO cells (ATCC, CRL-3214) were plated in a T150 tissue culture flask in RPMI medium supplemented with 10% FCS, 10 mM HEPES and 50 U/ml Penicillin-Streptomycin. On the next day, cells were transfected with 21 μg of the retroviral construct with Turbofect transfection reagent (Thermo Fischer Scientific), according to the manufacturer protocol. The medium was changed daily and collected at 48 h and 72 h post transfection. 48 h and 72 h virus supernatants were pooled and sedimented at 22000rcf for 2 h at 4° C. Finally, retrovirus pellets were resuspended in 2 ml of full RPMI medium and divided in 8 aliquots of 250 μl each, which were snap-frozen on dry ice and stored at −80° C.
Spleens from wild type CD45.1.2 mice were smashed on a 70 µm cell strainer. CD8 T cells were purified using the EasySep™ Mouse CD8+ T Cell Isolation Kit (StemCell) according to the manufacturer protocol. 0.5×10^6 CD8 T cells were plated in 48 well plates in 0.5 ml of complete RPMI 1640 medium supplemented with 10% FCS, antibiotics and 50 IU/ml of recombinant human IL-2, and exposed to either DMSO or 20 μM UK5099. Mouse T-cells were activated with Activator CD3/CD28 Dynabeads (Gibco) at a ratio of 2 beads per cell. Retroviral infection was conducted at 37° C. for 24 h. Untreated 48-well plates were coated for 24 h with […] of recombinant human fibronectin (Takara Clontech) at 4° C., followed by PBS 2% BSA for 30 min at RT and finally washed with PBS. One aliquot of concentrated retroviruses was plated in each fibronectin-coated 48-well plates and centrifuged for 90 min at 2000rcf and 32° C. Then, 0.5×10^6 of 24 h-activated CD8 T cells were added on top of the viruses and spun for 10 min at 400rcf and 32° C. On day 3, the medium was replaced with 10 IU/ml recombinant human IL-2, 10 ng/ml recombinant human IL-7 and 10 ng/ml recombinant human IL-15, containing either DMSO or 20 μM UK5099. Cells were then split every second day.
CD45.2 C57BL/6 mice were engrafted subcutaneously with 4×10^5 B16F10 tumors modified to express HER2. Six days later, mice were lymphodepleted with 100 mg/kg cyclophosphamide (Sigma Aldrich, C7397) injected i.p., and homogeneous groups were constituted with regard to tumor volume. T cells (5×10^6) were adoptively transferred i.v. on the next day. Tumor volumes were measured three times a week with a caliper and calculated using the formula: V=π×[d2×D]/6, where d is the minor tumor axis and D is the major tumor axis. Tumors were collected and separated from skin. Single cell suspensions were obtained with the Mouse Tumor Dissociation Kit (Miltenyi, 130-096-730) according to the manufacturer protocol. Spleen and draining lymph node were smashed on a 70 µm cell strainer. Single cell suspensions were stained with antibodies before flow cytometry analysis.
Polyclonal CD8 T cells from wild type mice were activated in the presence of DMSO or 20 μM UK5099 and then retrovirally transduced with a control blue fluorescent protein-expressing retroviral construct (BFP) or with HER2-CAR (FIG. 6A). […] More UK5099-HER2CAR T cells were engrafted in the tumor-draining lymph nodes, while CAR T cell numbers in the spleen were similar (FIGS. 6C and 6D). […] As in the spleen, more tumor-infiltrating UK5099-treated CAR T cells expressed TCF1 (FIG. 6G). […] Finally, fewer UK5099-treated CAR T cells were expressing the inhibitory molecules PD1 and TIM3, indicating a less exhausted phenotype (FIG. 6J).

[2] = tested on: histone 3 (H3K4-3Me, H3K27-Ac) in CD8 T cells; assay: Western blot of histone 3 modifications; format: cell-based, mouse
Source text: Mechanistically, it was hypothesized by the inventors that epigenetic processes might underlie the observed long-term memory phenotype and anti-tumor activity upon metabolic intervention with MPCi. […] Since acetyl-CoA is the acetyl donor for the acetylation of proteins, amongst which also histones, histone post-translational modifications were examined that are known to make chromatin accessible to transcription factors, a characteristic of memory T cells. […] These are marks known to open chromatin and make it accessible for transcription factor docking. […] Amongst those were Sell, Tcf7 and Ccr7, thereby correlating accessible chromatin with increased mRNA copies (FIG. 3E and see above).
Cells were lysed in RIPA lysis buffer (50 mM TrisHCl pH8, 150 mM NaCl, 1% Triton X 100, 0.5% Sodium deoxycholate, 0.1% SDS) and Halt protease/phosphatase cocktail inhibitors (Roche) and denatured by heat. Proteins were quantified by BCA protein assay kit (Thermo Scientific). Proteins were separated on 12.5% polyacrylamide gradient gels and transferred onto nitrocellulose membranes 0.2 μm (Biorad). Non-specific binding sites were blocked in milk 5% and membranes were incubated with primary antibodies (Cell Signaling). […]

OT2 CD4 T cells = assay: OT2 CD4 T cell co-culture with dendritic cells, CD62L by flow cytometry; format: cell-based, mouse; conditions: 75 μM; day 7; vs DMSO
Method: Naïve CD4 T cells were isolated by negative selection (Stem Cell Technologies) from the spleen of OT2 mice. Dendritic cells were isolated from spleens of C57BL/6 mice by CD11c positive selection (Stem Cell Technologies). 2×10^5 CD4 T cells were co-cultured with 1×10^6 dendritic cells in RPMI medium supplemented with 10% FBS, 1% Penicillin/Streptomycin, 50 μM β-mercaptoethanol, 1% HEPES, 1× Non-essential amino acids (Gibco 11140-035), 2 mM L-glutamine and 1 mM Sodium Pyruvate. T cells were activated by adding 1 μg/ml Ovalbumine peptide (323-339, ISQAVHAAHAEINEAGR) and 100 IU/ml rhIL-2, in the presence of 75 μM UK5099 or DMSO. Cells were split on day 4 and re-cultured in fresh medium containing 100 IU/ml rhIL-2, in the presence of 75 μM UK5099 or DMSO.
An experiment has been performed on mouse T cells in order to evaluate if MPC inhibition also promotes memory marker expression in CD4 T cells. As indicated in the experimental scheme (FIG. 5A), CD4 T cells from OT2 mice were activated by co-culture with dendritic cells. OT2 mice are transgenic for an […] recognizing specifically a chicken ovalbumine peptide 323-339 associated with the mouse MHC class II molecule I-Ab. We activated OT2 CD4 T cells by co-culture with dendritic cells loaded with […] of the ovalbumine peptide in the presence of 100 IU/ml recombinant human IL2 in the presence of 75 μM UK5099 or DMSO control. […]

[3] = 20 μM during production, vs DMSO
[4] = co-expression of TCF1 with PD1, vs DMSO

N#CC(=Cc1cn(-c2ccccc2)c2ccccc12)C(=O)O [UK5099, 2-cyano-3-(1-phenyl-1H-indol-3-yl)-2-propenoic acid]
CAR T cell numbers in the spleen [1, 3]: similar
HER2CAR T cells engrafted in the tumor-draining lymph nodes [1, 3]: More
percentage of splenic HER2CAR T cells expressing TCF1 [1, 3]: higher percentage
tumor growth after HER2CAR T cell ACT ([1]; CAR T cells produced with 20 μM UK5099, 5×10^6 T cells i.v.): significantly suppress tumor growth
progenitor exhausted T cells (TCF1-positive) among CAR T cells in the tumor [1, 4]: more
terminally differentiated exhausted T cells (TCF1-negative) among CAR T cells in the tumor [1, 4]: less
CAR T cells expressing the inhibitory molecules PD1 and TIM3 ([1]; in the tumor, vs DMSO): fewer
CAR T cells in tumors ([1]; per mg of tumor, vs DMSO): significantly more
tumor-infiltrating CAR T cells expressing TCF1 ([1]; vs DMSO): more
acetylation of lysine 27 on histone 3 (H3K27-Ac) [2]: increase
trimethylation of lysine 4 on histone 3 (H3K4-3Me) [2]: increase
CD62L-positive population of mouse CD4 T cells (OT2 CD4 T cells): strong increase
